# Laboratory results published in patent US20250179066A1, “ZWITTERIONIC ANTIBACTERIAL COMPOUNDS” (Hoffmann-La Roche Inc., priority 2022, published 2025).
# Where a name gives a salt, the structure may show the parent alone.
# System: Acinetobacter baumannii ATCC17961
# Assay: Antimicrobial susceptibility testing: 90% growth inhibitory concentration (IC90) determination
# Type: cell-based
# Settings: 90% growth inhibitory concentration against Acinetobacter baumannii ATCC17961, Iso-Sensitest broth, OD 600 nm over 16 h; read-out: ATCC 17961 IC90
# How it was run: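 Twofold serial dilutions (e.g. 10 to 0.0195 μM final) in Iso-Sensitest broth inoculated at ~5×10^5 CFU/mL, incubated at 35±2° C. OD600 read every minute for 16 h; IC90 is the concentration inhibiting 90% of growth during logarithmic phase.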
row,Compound,IC90 [nM]
1,"Cn1c(-c2cn(-c3ccc(N)cn3)nc2C(F)(F)F)cnc1C(=O)Nc1ccc(C(=O)N2CCN(C(=O)CCC[N+](CCCN)(CCCN)CC(=O)O)CC2)c(Cl)c1 [Example 66, bis(3-aminopropyl)-[4-[4-[4-[[5-[1-(5-amino-2-pyridyl)-3-(trifluoromethyl)pyrazol-4-yl]-1-methyl-imidazole-2-carbonyl]amino]-2-chloro-benzoyl]piperazino]-4-keto-butyl]-(carboxymethyl)ammonium. 1:1 2,2,2-trifluoroacetate]",720
2,"Cn1c(-c2cn(-c3ccc(NCCN)cn3)nc2C(F)(F)F)cnc1C(=O)Nc1ccc(C(=O)N2CCN(C(=O)[C@H]3CC[N@+](CC(=O)O)(CC4CNC4)CC3)CC2)c(Cl)c1 [Example 73, cis-2-[4-[4-[4-[[5-[1-[5-(2-aminoethylamino)-2-pyridyl]-3-(trifluoromethyl)pyrazol-4-yl]-1-methyl-imidazole-2-carbonyl]amino]-2-chloro-benzoyl]piperazine-1-carbonyl]-1-(azetidin-3-ylmethyl)piperidin-1-ium-1-yl]acetic acid; formic acid; formate]",870

# Same assay, conditions: Acinetobacter baumannii, ATCC17961, 16 h, 90% growth inhibitory concentration against Acinetobacter baumannii ATCC17961, Iso-Sensitest broth, OD 600 nm over 16 h; read-out: ATCC 17961 IC90
row,Compound,IC90 [nM]
1,"Cn1c(-c2cn(-c3ccc4occc4n3)nc2C(F)(F)F)cnc1C(=O)Nc1ccc(C(=O)N2CCN(C(=O)C3CC[N+](CC(=O)O)(CC4CNC4)CC3)CC2)c(Cl)c1 (centres unmarked) [Example 63, 2-[1-(azetidin-3-ylmethyl)-4-[4-[2-chloro-4-[[5-[1-furo[3,2-b]pyridin-5-yl-3-(trifluoromethyl)pyrazol-4-yl]-1-methyl-imidazole-2-carbonyl]amino]benzoyl]piperazine-1-carbonyl]piperidin-1-ium-1-yl]acetic acid. 1:1 2,2,2-trifluoroacetate]",680
2,"Cn1c(-c2cn(-c3ccc(N)cn3)nc2C(F)(F)F)cnc1C(=O)Nc1ccc(C(=O)N2CCN(C(=O)[C@H]3CC[N@@+](CC(=O)O)(CC4CNC4)CC3)CC2)c(Cl)c1 [Example 64, trans-2-[4-[4-[4-[[5-[1-(5-amino-2-pyridyl)-3-(trifluoromethyl)pyrazol-4-yl]-1-methyl-imidazole-2-carbonyl]amino]-2-chloro-benzoyl]piperazine-1-carbonyl]-1-(azetidin-3-ylmethyl)piperidin-1-ium-1-yl]acetic acid. 1:1 2,2,2-trifluoroacetic acid. 1:1 2,2,2-trifluoroacetate]",680
3,"Cn1c(-c2cn(-c3ccc(N)c(N)n3)nc2C(F)(F)F)cnc1C(=O)Nc1ccc(C(=O)N2CCN(C(=O)C3CC[N+](CC(=O)O)(CC4CNC4)CC3)CC2)c(Cl)c1 (centres unmarked) [Example 67, 2-[1-(azetidin-3-ylmethyl)-4-[4-[2-chloro-4-[[5-[1-(5,6-diamino-2-pyridyl)-3-(trifluoromethyl)pyrazol-4-yl]-1-methyl-imidazole-2-carbonyl]amino]benzoyl]piperazine-1-carbonyl]piperidin-1-ium-1-yl]acetic acid. 1:1 2,2,2-trifluoroacetate]",720
4,"CNc1ccc(-n2cc(-c3cnc(C(=O)Nc4ccc(C(=O)N5CCN(C(=O)C6CC[N+](CC(=O)O)(CC7CNC7)CC6)CC5)c(Cl)c4)n3C)c(C(F)(F)F)n2)cn1 (centres unmarked) [Example 68, 2-[1-(azetidin-3-ylmethyl)-4-[4-[2-chloro-4-[[1-methyl-5-[1-[6-(methylamino)-3-pyridyl]-3-(trifluoromethyl)pyrazol-4-yl]imidazole-2-carbonyl]amino]benzoyl]piperazine-1-carbonyl]piperidin-1-ium-1-yl]acetic acid. 1:1 2,2,2-trifluoroacetate]",760
5,"Cn1c(-c2cn(-c3ccc(NC4CCC4)cn3)nc2C(F)(F)F)cnc1C(=O)Nc1ccc(C(=O)N2CCN(C(=O)C3CC[N+](CC(=O)O)(CC4CNC4)CC3)CC2)c(Cl)c1 (centres unmarked) [Example 69, 2-[1-(azetidin-3-ylmethyl)-4-[4-[2-chloro-4-[[5-[1-[5-(cyclobutylamino)-2-pyridyl]-3-(trifluoromethyl)pyrazol-4-yl]-1-methyl-imidazole-2-carbonyl]amino]benzoyl]piperazine-1-carbonyl]piperidin-1-ium-1-yl]acetic acid. 1:1 formate]",790
6,"Cn1c(-c2cn(-c3ccc(N)cn3)nc2C(F)(F)F)cnc1C(=O)Nc1ccc(C(=O)N2CCN(C(=O)NCCCc3cc[n+](CC(=O)O)c(CCCN)c3)CC2)c(Cl)c1 [Example 70, 2-[2-(3-Aminopropyl)-4-[3-[[4-[4-[[5-[1-(5-amino-2-pyridyl)-3-(trifluoromethyl)pyrazol-4-yl]-1-methyl-imidazole-2-carbonyl]amino]-2-chloro-benzoyl]piperazine-1-carbonyl]amino]propyl]pyridin-1-ium-1-yl]acetic Acid.1:1 2,2,2-trifluoroacetic Acid.1:1 2,2,2-trifluoroacetate]",850
7,"Cn1c(-c2cn(-c3cc(N)ccn3)nc2C(F)(F)F)cnc1C(=O)Nc1ccc(C(=O)N2CCN(C(=O)C3CC[N+](CC(=O)O)(CC4CNC4)CC3)CC2)c(Cl)c1 (centres unmarked) [Example 71, 2-[4-[4-[4-[[5-[1-(4-amino-2-pyridyl)-3-(trifluoromethyl)pyrazol-4-yl]-1-methyl-imidazole-2-carbonyl]amino]-2-chloro-benzoyl]piperazine-1-carbonyl]-1-(azetidin-3-ylmethyl)piperidin-1-ium-1-yl]acetic acid. 1:1 2,2,2-trifluoroacetate]",860
8,"Cn1c(-c2cn(-c3ccc(N)cn3)nc2C(F)(F)F)cnc1C(=O)Nc1ccc(C(=O)N2CCN(C(=O)CCCN(CCCN)CC(=O)O)CC2)c(Cl)c1 [Example 72, 2-[3-aminopropyl-[4-[4-[4-[[5-[1-(5-amino-2-pyridyl)-3-(trifluoromethyl)pyrazol-4-yl]-1-methyl-imidazole-2-carbonyl]amino]-2-chloro-benzoyl]piperazino]-4-keto-butyl]amino]acetic acid. 1:1 2,2,2-trifluoroacetic acid]",870
9,"Cn1c(-c2cn(-c3ccnc(N)c3)nc2C(F)(F)F)cnc1C(=O)Nc1ccc(C(=O)N2CCN(C(=O)C3CC[N+](CC(=O)O)(CC4CNC4)CC3)CC2)c(Cl)c1 (centres unmarked) [Example 74, 2-[4-[4-[4-[[5-[1-(2-amino-4-pyridyl)-3-(trifluoromethyl)pyrazol-4-yl]-1-methyl-imidazole-2-carbonyl]amino]-2-chloro-benzoyl]piperazine-1-carbonyl]-1-(azetidin-3-ylmethyl)piperidin-1-ium-1-yl]acetic acid. 1:1 2,2,2-trifluoroacetate]",940
10,"Cn1c(-c2cn(-c3ccc(N)cn3)nc2C(F)(F)F)cnc1C(=O)Nc1ccc(C(=O)N2CCC(C(=O)N3CC[N+](CCCN)(CC(=O)O)CC3)CC2)c(Cl)c1 [Example 75, 2-[1-(3-aminopropyl)-4-[1-[4-[[5-[1-(5-amino-2-pyridyl)-3-(trifluoromethyl)pyrazol-4-yl]-1-methyl-imidazole-2-carbonyl]amino]-2-chloro-benzoyl]piperidine-4-carbonyl]piperazin-1-ium-1-yl]acetic acid. 1:1 2,2,2-trifluoroacetate]",950
11,"Cn1c(-c2cn(-c3ccc(C#N)cn3)nc2C(F)(F)F)cnc1C(=O)Nc1ccc(C(=O)N2CCN(C(=O)C3CC[N+](CC(=O)O)(CC4CNC4)CC3)CC2)c(Cl)c1 (centres unmarked) [Example 76, 2-[1-(azetidin-3-ylmethyl)-4-[4-[2-chloro-4-[[5-[1-(5-cyano-2-pyridyl)-3-(trifluoromethyl)pyrazol-4-yl]-1-methyl-imidazole-2-carbonyl]amino]benzoyl]piperazine-1-carbonyl]piperidin-1-ium-1-yl]acetic acid. 1:1 formate]",1030
12,"C[C@H]1CN(C(=O)c2ccc(NC(=O)c3ncc(-c4cn(-c5ccc(N)cn5)nc4C(F)(F)F)n3C)cc2Cl)CCN1C(=O)C1CC[N+](CC(=O)O)(CC2CNC2)CC1 (stereo partly drawn) [Example 77, 2-[4-[(2S)-4-[4-[[5-[1-(5-amino-2-pyridyl)-3-(trifluoromethyl)pyrazol-4-yl]-1-methyl-imidazole-2-carbonyl]amino]-2-chloro-benzoyl]-2-methyl-piperazine-1-carbonyl]-1-(azetidin-3-ylmethyl)piperidin-1-ium-1-yl]acetic acid. 1:1 formate]",1100
13,"CC[C@@H]1CN(C(=O)C2CC[N+](CC(=O)O)(CC3CNC3)CC2)CCN1C(=O)c1ccc(NC(=O)c2ncc(-c3cn(-c4ccc(N)cn4)nc3C(F)(F)F)n2C)cc1Cl (stereo partly drawn) [Example 78, 2-[4-[(3R)-4-[4-[[5-[1-(5-amino-2-pyridyl)-3-(trifluoromethyl)pyrazol-4-yl]-1-methyl-imidazole-2-carbonyl]amino]-2-chloro-benzoyl]-3-ethyl-piperazine-1-carbonyl]-1-(azetidin-3-ylmethyl)piperidin-1-ium-1-yl]acetic acid. 1:1 formate]",1110
14,"C[C@H]1CN(C(=O)C2CC[N+](CC(=O)O)(CC3CNC3)CC2)CCN1C(=O)c1ccc(NC(=O)c2ncc(-c3cn(-c4ccc(N)cn4)nc3C(F)(F)F)n2C)cc1Cl (stereo partly drawn) [Example 79, 2-[4-[(3S)-4-[4-[[5-[1-(5-amino-2-pyridyl)-3-(trifluoromethyl)pyrazol-4-yl]-1-methyl-imidazole-2-carbonyl]amino]-2-chloro-benzoyl]-3-methyl-piperazine-1-carbonyl]-1-(azetidin-3-ylmethyl)piperidin-1-ium-1-yl]acetic acid. 1:1 formate]",1120
15,"Cn1c(-c2cn(-c3nc4ccccc4s3)nc2C(F)(F)F)cnc1C(=O)Nc1ccc(C(=O)N2CCN(C(=O)C3CC[N+](CC(=O)O)(CC4CNC4)CC3)CC2)c(Cl)c1 (centres unmarked) [Example 80, 2-[1-(azetidin-3-ylmethyl)-4-[4-[4-[[5-[1-(1,3-benzothiazol-2-yl)-3-(trifluoromethyl)pyrazol-4-yl]-1-methyl-imidazole-2-carbonyl]amino]-2-chloro-benzoyl]piperazine-1-carbonyl]piperidin-1-ium-1-yl]acetic acid. 1:1 formate]",1200
